# Data: patent publication US20220315624A1, “THIOSTREPTON ANALOGS AND METHODS OF MAKING AND USING SAME” (YALE UNIVERSITY, priority 2019, published 2022)
# Assays:
# [1] = system: S. pneumoniae and S. pyogenes isolates; assay: MIC broth microdilution, summary over streptococci; type: cell-based; details: read-out: MIC values against S. pneumoniae and S. pyogenes isolates
# Method: (§1) Twenty-four test agents were shipped to Micromyx and stored at −20° C. until assayed. The compounds were dissolved in 100% DMSO at 6.46 mg/mL prior to testing. Comparator drugs were supplied by Micromyx and were handled as described below:
# (§2) The test organisms for the assay were recent clinical isolates or reference strains acquired from the American Type Culture Collection (ATCC; Manassas, Va.). Upon receipt, the isolates were streaked onto Trypticase Soy Agar II+5% sheep blood (TSAB). Colonies were harvested from the plates and a cell suspension was prepared in Trypticase Soy Broth containing cryoprotectant. Aliquots were then frozen at −80° C. Prior to the assay, the frozen seeds of all bacterial isolates to be tested were thawed and streaked for isolation onto TSAB (BD/BBL, Sparks, Md.; Lot No. 9011894), and were incubated overnight at 35° C.
# The test medium for all isolates was cation-adjusted Mueller Hinton broth (CAMHB; BD/BBL; Lot No. 8190586). […]
# MIC values were determined using a broth microdilution method as recommended by CLSI. […]
# (§3) Plates were stacked 3 high, covered with a lid on the top plate, placed in plastic bags, and incubated at 35° C. for 16-20 hr for all organisms except streptococci which were incubated for 20-24 hr. […] The MIC was read and recorded as the lowest concentration of drug that inhibited visible growth of the organism. […]
# [2] = system: S. aureus isolates; assay: MIC broth microdilution, S. aureus isolates; type: cell-based
# Method: as §1, §2
# (§4) The test medium for all isolates was cation-adjusted Mueller Hinton broth (CAMHB; BD/BBL; Lot No. 8190586). CAMHB (Cation Adjusted Mueller Hinton Broth) was supplemented with 3% (v/v) lysed horse blood (LHB; Hemostat, Dixon, Calif.; Lot No. 474990) for the testing of streptococci.
# (§5) MIC values were determined using a broth microdilution method as recommended by CLSI. Automated liquid handlers (Multidrop 384, Labsystems, Helsinki, Finland; Biomek 2000 and Biomek F/X, Beckman Coulter, Fullerton Calif.) were used to conduct serial dilutions and make liquid transfers.
# (§6) The wells of standard 96-well microdilution plates (Costar 3795, Corning Inc., Corning, N.Y.) were filled with 150 μL of the appropriate diluent in columns 2-12 on the Multidrop 384 (DMSO for the thiostrepton analogs, deionized H2O for vancomycin and ceftazidime). These plates were used to prepare the drug “mother plate” which provided the serial drug dilutions for the replicate “daughter plates”. The compounds (300 μL) were dispensed at 101× the highest concentration to be tested into the appropriate row of the “mother plate”. The Biomek 2000 was used to transfer 150 μL of each stock solution from the wells in Column 1 of the mother plate to make ten subsequent 2-fold serial dilutions. The wells of Column 12 contained no drug and served as the organism growth control wells. The daughter plates were loaded with 190 μL of test medium using the Multidrop 384.
# (§7) The daughter plates were prepared on the Biomek F/X instrument which transferred […] of drug solution from each well of the mother plate to each corresponding well of each daughter plate in a single step. The wells of the daughter plates ultimately contained 190 μL of media, 2 μL of drug solution, and 10 μL of inoculum prepared as described below. The final concentration of DMSO (if used as a solvent) in the test well was 1%.
# (§8) A standardized inoculum of each organism was prepared per CLSI methods. A suspension of organisms from a fresh plate was prepared in CAMHB to equal the turbidity of a 0.5 McFarland standard. The suspensions were diluted 1:20 in CAMHB, or in the case of streptococci CAMHB with LHB. The inoculum for each organism was dispensed into sterile reservoirs divided by length (Beckman Coulter), and the Biomek 2000 was used to inoculate the plates. Daughter plates were placed on the Biomek 2000 work surface reversed so that inoculation took place from low to high drug concentration. The Biomek 2000 delivered 10 μL of standardized inoculum into each well. These dilutions yielded a final cell concentration in the daughter plates of approximately 5.0×10^5 CFU/mL.
# (§9) Plates were stacked 3 high, covered with a lid on the top plate, placed in plastic bags, and incubated at 35° C. for 16-20 hr for all organisms except streptococci which were incubated for 20-24 hr. Following incubation, the microplates were removed from the incubator and viewed from the bottom using a plate viewer. The MIC was read and recorded as the lowest concentration of drug that inhibited visible growth of the organism. […]
# [3] = Un-inoculated solubility control plate (drug precipitation); type: physicochemical
# [4] = system: E. faecalis and E. faecium; assay: MIC broth microdilution, summary over enterococci; type: cell-based
# Method: as §1, §2, §4, §5, §6, §7, §8, §9
# [5] = system: Gram-positive cocci; assay: MIC broth microdilution, overall summary; type: cell-based; details: summary of MIC testing
# Method: as §1, §2, §4, §5, §6
# The daughter plates were prepared on the Biomek F/X instrument which transferred […] of drug solution from each well of the mother plate to each corresponding well of each daughter plate in a single step. […]
# as §3
# [6] = Aqueous solubility analysis in MOPS buffer; type: physicochemical; details: after 24 hours in 10 mM aqueous MOPS buffer
# Method: A 2 dram vial was loaded with ˜0.5 mg of a thiostrepton derivative and suspended in ˜4 mL of aqueous 10 mM MOPS buffer (pKa 7.2). The suspension was stirred vigorously for 24 h to ensure equilibration, then filtered through a […] centrifuge filtration unit. A 3.0 mL aliquot was concentrated, and the dried residue was diluted with 0.30 mL of 1:1 1,4-dioxane/H2O (10× original concentration necessitated by detection limits). The total UV absorbance (200-300 nm) was measured in triplicate by UPLC runs with a photodiode array detector. A calibration curve for each compound was created using data points from 3 trials each of concentrations in 1:1 1,4-dioxane/H2O ranging from […]. These concentrations were plotted against their respective average absorbances. The experimental concentration of each compound was calculated by dividing the found μg/mL value by the residue concentration factor of 10 to yield the actual solubility value.
# [7] = system: S. pyogenes ATCC 19615; assay: MIC broth microdilution; type: cell-based; details: Streptococcus pyogenes, ATCC19615, 20 h
# Method: as §1, §2, §4, §5, §6, §7, §8, §9
# [8] = system: E. coli ATCC 25922; assay: MIC broth microdilution; type: cell-based
# Method: as §1, §2, §4, §5, §6, §7, §8, §9
# [9] = system: E. faecium MMX 485 VRE; assay: MIC broth microdilution; type: cell-based; details: Enterococcus faecium, VRE
# Method: as §1, §2, §4, §5, §6, §7, §8, §9
# [10] = system: S. aureus ATCC 29213 MSSA; assay: MIC broth microdilution; type: cell-based; details: Staphylococcus aureus
# Method: as §1, §2, §4, §5, §6, §7, §8, §9
# [11] = system: S. pneumoniae ATCC 49619 PISP; assay: MIC broth microdilution; type: cell-based; details: Streptococcus pneumoniae, ATCC49619, 20 h
# Method: as §1, §2, §4, §5, §6, §7, §8, §9
# [12] = system: E. faecalis MMX 486 VRE; assay: MIC broth microdilution; type: cell-based; details: Enterococcus faecalis, VRE
# Method: as §1, §2, §4, §5, §6, §7, §8, §9
# [13] = system: E. faecium MMX 708 VSE; assay: MIC broth microdilution; type: cell-based; details: Enterococcus faecium, MMX708VSE
# Method: as §1, §2, §4, §5, §6, §7, §8, §9
# [14] = system: E. faecalis ATCC 29212 VSE; assay: MIC broth microdilution; type: cell-based; details: Enterococcus faecalis, ATCC29212
# Method: as §1, §2, §4, §5, §6, §7, §8, §9
# [15] = system: S. aureus MMX 8088 MRSA; assay: MIC broth microdilution; type: cell-based; details: Staphylococcus aureus, MRSA
# Method: as §1, §2, §4, §5, §6, §7, §8, §9
# [16] = system: S. pneumoniae ATCC 49619 PISP; details: range in parentheses; cited from earlier work
# [17] = system: E. faecalis ATCC 29212 VSE; details: range in parentheses; cited from earlier work
# [18] = system: S. aureus ATCC 29213 MSSA; details: range in parentheses; cited from earlier work
SMILES,MIC [7],"MIC ([8]; Escherichia coli, ATCC25922)",MIC [9],MIC [10],MIC [11],MIC [12],MIC [13],MIC [14],MIC [15],further results
C=C(NC(=O)C(=C)NC(=O)c1csc(C2=N[C@@H]3c4csc(n4)[C@H]4NC(=O)c5csc(n5)[C@H]([C@](C)(O)[C@@H](C)O)NC(=O)[C@H]5CSC(=N5)/C(=C/C)NC(=O)[C@H]([C@@H](C)O)NC(=O)c5csc(n5)[C@]3(CC2)NC(=O)[C@H](C)NC(=O)C(=C)NC(=O)[C@H](C)NC(=O)[C@H]([C@@H](C)CC)N[C@@H]2C=Cc3c([C@H](C)O)cc(nc3[C@H]2O)C(=O)O[C@@H]4C)n1)C(N)=O [Thiostrepton],< 0.001 µg/mL,> 64 µg/mL,0.06 µg/mL,0.06 µg/mL,< 0.001 µg/mL,0.12 µg/mL,0.12 µg/mL,0.12 µg/mL,0.12 µg/mL,"MIC [1]: ≤ 0.001 µg/mL; MIC ([2]; Staphylococcus aureus, read-out: MIC values against S. aureus isolates): 0.06 to 0.12 µg/mL; MIC values against MRSA relative to MSSA ([2]; identical or within 2-fold, impact of methicillin resistance): ≤ 2 fold; Precipitation in CAMHB ([3]; at 64 μg/mL in CAMHB): distinct precipitation; Precipitation in CAMHB in LHB ([3]; at 64 μg/mL in CAMHB in LHB): distinct precipitation; VRE MIC values relative to VSE MIC values ([4]; impact of vancomycin resistance among enterococci): comparable; MIC ([4]; read-out: MIC values against E. faecalis and E. faecium): 0.06 to 0.12 µg/mL; Activity among the evaluated analogs / against evaluated Gram-positive cocci (summary in words) [5]: potent activity; Solubility pH 7.2 [6]: 3.0 (±0.2) μg/mL; MIC ([8]; E. coli ATCC 25922, CAMHB): >64 µg/mL"
"CN[C@H](CC(C)C)C(=O)N[C@H]1C(=O)N[C@@H](CC(N)=O)C(=O)N[C@H]2C(=O)N[C@H]3C(=O)N[C@H](C(=O)N[C@H](C(=O)O)c4cc(O)cc(O)c4-c4cc3ccc4O)[C@H](O)c3ccc(c(Cl)c3)Oc3cc2cc(c3O[C@@H]2O[C@H](CO)[C@@H](O)[C@H](O)[C@H]2O[C@H]2C[C@](C)(N)[C@H](O)[C@H](C)O2)Oc2ccc(cc2Cl)[C@H]1O [Vancomycin, reference compound]",0.25 µg/mL,> 64 µg/mL,> 32 µg/mL,1 µg/mL,0.12 µg/mL,> 32 µg/mL,0.25 µg/mL,2 µg/mL,1 µg/mL,CLSI quality control range (MIC) [16]: 0.12 to 0.5 µg/mL; CLSI quality control range (MIC) [17]: 1 to 4 µg/mL; CLSI quality control range (MIC) [18]: 0.5 to 2 µg/mL
